Conditions: 333.15 K, Liquid, Vibrating tube method

CCCCCCCCCC [decane]
Conditions | mass density [kg/m3]
4738 kPa | 703.8
4760 kPa | 703.6
4781 kPa | 703.9
4846 kPa | 703.9
4874 kPa | 704
4903 kPa | 703.9
4957 kPa | 704.1
4981 kPa | 704.1
5033 kPa | 704.1
5058 kPa | 704
5078 kPa | 704.2
5105 kPa | 704.2
5125 kPa | 704.1
5153 kPa | 704.1
5182 kPa | 704.1
5207 kPa | 704.3
5223 kPa | 704.3
5253 kPa | 704.2
5272 kPa | 704.3
5288 kPa | 704.2
5306 kPa | 704.4
5324 kPa | 704.3
5342 kPa | 704.4
5361 kPa | 704.3
5380 kPa | 704.3
5399 kPa | 704.4
5413 kPa | 704.4
5434 kPa | 704.4
5450 kPa | 704.5
5470 kPa | 704.5
5498 kPa | 704.5
5514 kPa | 704.6
5530 kPa | 704.6
5548 kPa | 704.5
5567 kPa | 704.7
5637 kPa | 704.6
5652 kPa | 704.6
5669 kPa | 704.7
5690 kPa | 704.7
5721 kPa | 704.7
5735 kPa | 704.7
6140 kPa | 705.1
6164 kPa | 705
6191 kPa | 705.1
6212 kPa | 705.1
6234 kPa | 705.2
6252 kPa | 705.2
6280 kPa | 705.2
6299 kPa | 705.2
6323 kPa | 705.2
6345 kPa | 705.3
6367 kPa | 705.3
6389 kPa | 705.2
6418 kPa | 705.4
6437 kPa | 705.3
6464 kPa | 705.3
6483 kPa | 705.4
6513 kPa | 705.5
6533 kPa | 705.4
6560 kPa | 705.5
6595 kPa | 705.5
6622 kPa | 705.6
6882 kPa | 705.7
6909 kPa | 705.8
6935 kPa | 705.8
6958 kPa | 706
6985 kPa | 705.9
7028 kPa | 705.9
7059 kPa | 706
7087 kPa | 706
7110 kPa | 706
7135 kPa | 705.9
7164 kPa | 706
7188 kPa | 706
7209 kPa | 706.1
7243 kPa | 706
7268 kPa | 706.2
7306 kPa | 706.1
7344 kPa | 706.2
8096 kPa | 706.9
8122 kPa | 706.9
8147 kPa | 707
8166 kPa | 707
8186 kPa | 707
8211 kPa | 707
8236 kPa | 707
8262 kPa | 707
8292 kPa | 707
8315 kPa | 707
8335 kPa | 707
8358 kPa | 707
8381 kPa | 707.2
8505 kPa | 707.3
8536 kPa | 707.2
8561 kPa | 707.4
8613 kPa | 707.4
8638 kPa | 707.3
8740 kPa | 707.4
8795 kPa | 707.5
8818 kPa | 707.7
8851 kPa | 707.6
8872 kPa | 707.6
8900 kPa | 707.6
8924 kPa | 707.6
9353 kPa | 708
9380 kPa | 708.2
9411 kPa | 708.1
9435 kPa | 708.2
9465 kPa | 708.1
9493 kPa | 708.1
9570 kPa | 708.3
9598 kPa | 708.2
9623 kPa | 708.2
9648 kPa | 708.3
9680 kPa | 708.2
9709 kPa | 708.3
9849 kPa | 708.4
9874 kPa | 708.5
9908 kPa | 708.6
9931 kPa | 708.6
9958 kPa | 708.6
9981 kPa | 708.6
10004 kPa | 708.6
10023 kPa | 708.6
10054 kPa | 708.6
10081 kPa | 708.7
10109 kPa | 708.7
10145 kPa | 708.8
10175 kPa | 708.9
10207 kPa | 708.8
10231 kPa | 708.8
10260 kPa | 708.8
10298 kPa | 708.9
10331 kPa | 708.7
10354 kPa | 708.9
10384 kPa | 709
10403 kPa | 708.9

Source: the NIST ThermoML archive (doi:10.1021/je800110r)
